Data set [1] in a line: Distribution coefficient between octanol and aqueous phase at pH7.2. Type of data set: physicochemical. The conditions noted are these: pH 7.2.
Data set [2] can be described thus: Observed inhibitory activity against various Actinomycetes strains. The conditions noted are these: actinomycetaceae.
Data set [3] can be described thus: Partition coefficient is determined in octanol/buffer solution. To be noted: octanol/buffer; read-out: logP. In kind it is physicochemical.
A short description of data set [4]: Dissociation constant is the negative logarithm of the equilibrium coefficient of the neutral and charged forms of the compound. Type of data set: physicochemical.
Data set [5] has as its system Actinomyces israelii. Put plainly: In vitro antibacterial activity against Actinomycetes israelii 28360. Type of data set: functional.
The subject of data set [6] is Actinomyces naeslundii. Put plainly: In vitro antibacterial activity against Actinomycetes naeslundii 12104. In kind it is functional.
In data set [7] the test system is Actinomyces naeslundii. Put plainly: In vitro antibacterial activity against Actinomycetes naeslundii 8115. In kind it is functional.
The test system of data set [8] is Actinomyces viscosus. The data set is described as follows: In vitro antibacterial activity against Actinomyces viscosus M-100-2000. Type of data set: functional.
Data set [9] has as its system Actinomyces israelii. The data set is described as follows: In vitro antibacterial activity against Actinomycetes israelii 10048. Type of data set: functional.
Data set [10] deals with Actinomyces viscosus. Put plainly: In vitro antibacterial activity against Actinomycetes viscosus T14V. Type of data set: functional.
Data set [11] relates to Actinomyces israelii. Put plainly: In vitro antibacterial activity against Actinomycetes israelii 12836. In kind it is functional.

The logD is lipophilicity at a set pH, counting ionised and neutral species. Low values mean lower lipophilicity, high ones higher lipophilicity. A word on the logP: it is a log measure of how a compound divides between an organic and an aqueous phase. The pKa is the pH at which an ionisable group is half protonated. A lower pKa goes with a stronger acid or weaker base. By MIC is commonly meant the lowest concentration that inhibits growth of the organism. A lower MIC goes with greater potency.

In brackets after ≈: the same amount, converted by molar mass.

In data set [1], `O=C(Nc1ccc(Br)cc1)c1cc(Br)cc(Br)c1O` [TRIBROMSALAN] yielded a logD of 4.78. Besides, the “Log 1/MIC” value in data set [2] stood at 5.95. Further, the log partition coefficient (logP) in data set [3] worked out at 6.15. The pKa in [4] worked out at 5.85. The MIC with Actinomyces israelii [5] is 5 µg/mL (≈ 11.1 µM); in the data set with Actinomyces naeslundii [6] it was 1 µg/mL (≈ 2.22 µM); with Actinomyces naeslundii [7], 1 µg/mL (≈ 2.22 µM); with Actinomyces viscosus [8], 0.5 µg/mL (≈ 1.11 µM); against Actinomyces israelii [9], 1 µg/mL (≈ 2.22 µM); in the data set with Actinomyces viscosus [10], 1 µg/mL (≈ 2.22 µM). Besides, the minimal inhibitory concentration (MIC) against Actinomyces israelii [11] was 0.5 µg/mL (≈ 1.11 µM).

(Values after ChEMBL document CHEMBL1121855, “Potential salicylamide antiplaque agents: in vitro antibacterial activity against Actinomyces viscosus” (J Med Chem, 1981).)
